Experiments:
Type in all cases: cell-based
[1] = system: Human Rhinovirus 14 (HRV14) in H1-HeLa cells; experiment: H1-HeLa HRV-CTG EC50, HRV14 (Example Z); details: Rhinovirus B, HRV14, 96 h, MOI 1.0, 4 days, Celltiter-Glo, read-out: HRV14 HELA EC50 (nM) (per Ex. Z)
Text: (§1) H1-Hela cell line (ATCC, Manassas, VA, Cat #CRL-1958) was maintained in Dulbecco's […] (DMEM) (Corning, New York, NY, Cat #15-018CM) supplemented with 10% fetal bovine serum (FBS) (Hyclone, Logan, UT, Cat #SH30071-03), and 1× Penicillin-Streptomycin-L-Glutamine (Coming, New York, NY, Cat #30-009-C1). Cells were passaged 2 times per week to maintain sub-confluent densities and were used for experiments at passage 5-30. The Human Rhinovirus 1B (HRV1B) (ATCC, Manassas, VA, Cat #VR-1645), Human Rhinovirus 14 (HRV14) (ATCC, Manassas, VA, Cat #VR-284), and Human Rhinovirus 16 (HRV16) (ATCC, Manassas, VA, Cat #BR-283) was obtained through ATCC. Viral infection was monitored by determining viability of H1-HeLa cells as described below.
(§2) Test molecules are prepared in 100% DMSO in 384-well polypropylene plates (Greiner, Monroe, NC, Cat #784201) with 8 compounds per plate in grouped replicates of 4 at 10 serially diluted concentrations (1:3). The serially diluted compounds were transferred to low dead volume Echo plates (Labcyte, Sunnyvale, CA, Cat #LP-0200).
(§3) The test compounds were spotted to 384-well assay plates (Greiner, Monroe, NC, Cat #781091) at 200 nL per well using an Echo acoustic dispenser (Labcyte, Sunnyvale, CA). H1-HeLa cells were harvested and suspended in DMEM (supplemented with 2% FBS and 1× Penicillin-Streptomycin-L-Glutamine) and seeded to the pre-spotted assay plates at 5,000 cells per well in 30 μL. HRV1B, HRV14, and HRV16 was diluted in DMEM (supplemented with 2% FBS and 1× Penicillin-Streptomycin-L-Glutamine) at 97.1 million Infectious Units (IU) per mL, 151 million IU per mL and 221 million IU per mL respectively. 10 μL of virus per well was added to the assay plates containing cells and compounds, for an MOI of 0.5, 1.0, and 0.25 respectively. The assay plates were incubated for 4 days at 37° C. and 5% CO2. At the end of incubation, Celltiter-Glo (Promega, Madison, WI, Cat #G7573) was prepared. The assay plates and Celltiter-Glo reagent were equilibrated to room temperature for at least 15 minutes. 40 μL per well of Celltiter-Glo reagent was added and the plates were incubated at room temperature for 15 minutes before reading the luminescence signal on an EnVision multimode plate reader (Perkin Elmer, Waltham, MA). Rupintrivir was used as positive control and DMSO was used as negative control. Values were normalized to the positive and negative controls (as 0% and 100% replication, respectively) and data was fitted using non-linear regression analysis by Gilead's dose response tool. The EC50 value for each compound was defined as the concentration reducing viral replication by 50%.

[2] = RSV NHBE CC50 384 V2 (per Ex. U); details: human
[3] = system: Respiratory syncytial virus recombinant with luciferase (RSV-Luc5) in NHBE cells; experiment: NHBE RSV-Luc5 384-well assay (EC50 RSVFLUC NHBE-384, Example U); details: human respiratory syncytial virus, 72 h, read-out: RSV FLuc NHBE 384 EC50 (v2) (nM) (per Ex. U)
Method in brief: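 Passage-2 NHBE cells (5,000/well) on pre-spotted compounds, 10-point 1:3 series, infected with RSV-Luc5 at MOI 1 and incubated 3 days at 37° C. Replication read by One-Glo luminescence, normalized to remdesivir (0%) and DMSO (100%); EC50 = concentration reducing replication by 50%, by non-linear regression.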

[4] = system: Human Rhinovirus 16 (HRV16) in H1-HeLa cells; experiment: H1-HeLa HRV-CTG EC50, HRV16 (Example Z); details: Rhinovirus A, HRV16, 96 h, MOI 0.25, 4 days, Celltiter-Glo, read-out: HRV 16 HELA EC50 (nM) (per Ex. Z)
Text: as §1, §2, §3

[5] = RSV HEP2-CC50-384-V2 (per Ex. V); details: human
[6] = system: Human Rhinovirus 1B (HRV1B) in H1-HeLa cells; experiment: H1-HeLa HRV-CTG EC50, HRV1B (Example Z); details: Rhinovirus A, 96 h, MOI 0.5, 4 days, Celltiter-Glo, read-out: HRV 1B HELA EC50 (nM) (per Ex. Z)
Text: as §1, §2, §3

Compound | EC50 [1] | CC50 at 3 days [2] | EC50 [3] | EC50 [4] | CC50 at 3 days [5] | EC50 [6]
CCCCCCCCCCCCCCCCCCOC[C@H](COP(=O)(O)OC[C@@]1(C#N)O[C@@H](c2ccc3c(N)ncnn23)[C@H](O)[C@@H]1O)OCc1ccc(C#N)c(-n2cncn2)c1 [Compound 16, ((2R,3S,4R,5S)-5-(4-aminopyrrolo[2,1-f][1,2,4]triazin-7-yl)-2-cyano-3,4-dihydroxytetrahydrofuran-2-yl)methyl ((R)-2-((4-cyano-3-(1H-1,2,4-triazol-1-yl)benzyl)oxy)-3-(octadecyloxy)propyl) hydrogen phosphate] | 11 nM | 4.61 µM | < 3 nM | 10 nM | > 41.5 µM | 5 nM
CCCCCCCCCCCCCCCC[C@H](COP(=O)(O)OC[C@@]1(C#N)O[C@@H](c2ccc3c(N)ncnn23)[C@H](O)[C@@H]1O)OCc1cc(F)cc(C#N)c1 [Compound 78, ((2R,3S,4R,5S)-5-(4-aminopyrrolo[2,1-f][1,2,4]triazin-7-yl)-2-cyano-3,4-dihydroxytetrahydrofuran-2-yl)methyl ((R)-2-((3-cyano-5-fluorobenzyl)oxy)octadecyl) hydrogen phosphate] | 38 nM | 1.2 µM | 31 nM | 66 nM | 34.6 µM | 24 nM
CCCCCCCCCCCCCCCCCCOCC(COc1cc(F)cc(C#N)c1)COP(=O)(O)OC[C@@]1(C#N)O[C@@H](c2ccc3c(N)ncnn23)[C@H](O)[C@@H]1O (stereo partly drawn) [Compound 43, ((2R,3S,4R,5S)-5-(4-aminopyrrolo[2,1-f][1,2,4]triazin-7-yl)-2-cyano-3,4-dihydroxytetrahydrofuran-2-yl)methyl (3-(3-cyano-5-fluorophenoxy)-2-((octadecyloxy)methyl)propyl) hydrogen phosphate] | 75 nM | 11.9 µM | 98 nM | 53 nM | > 30.3 µM | 36 nM
CCCCCCCCCCCCCCCCCCC[C@H](COP(=O)(O)OC[C@@]1(C#N)O[C@@H](c2ccc3c(N)ncnn23)[C@H](O)[C@@H]1O)OCc1cc(F)cc(C#N)c1 [Compound 25, ((2R,3S,4R,5S)-5-(4-aminopyrrolo[2,1-f][1,2,4]triazin-7-yl)-2-cyano-3,4-dihydroxytetrahydrofuran-2-yl)methyl ((R)-2-((3-cyano-5-fluorobenzyl)oxy)henicosyl) hydrogen phosphate] | 103 nM | 31 µM | 169 nM | 99 nM | > 50 µM | 45 nM
CCCCCCCCCCCCCCCCCCOC[C@H](COP(=O)(O)OC[C@@]1(C#N)O[C@@H](c2ccc3c(N)ncnn23)[C@H](O)[C@@H]1O)Oc1cccc(C#N)n1 [Compound 21, ((2R,3S,4R,5S)-5-(4-aminopyrrolo[2,1-f][1,2,4]triazin-7-yl)-2-cyano-3,4-dihydroxytetrahydrofuran-2-yl)methyl ((R)-2-((6-cyanopyridin-2-yl)oxy)-3-(octadecyloxy)propyl) hydrogen phosphate] | 60 nM | 3.35 µM | 29 nM | 50 nM | 39.7 µM | 35 nM
CCCCCCCCCCCCCCCCCCCC[C@H](COP(=O)(O)OC[C@@]1(C#N)O[C@@H](c2ccc3c(N)ncnn23)[C@H](O)[C@@H]1O)Oc1cccc(C#N)c1 [Compound 51, ((2R,3S,4R,5S)-5-(4-aminopyrrolo[2,1-f][1,2,4]triazin-7-yl)-2-cyano-3,4-dihydroxytetrahydrofuran-2-yl)methyl ((R)-2-(3-cyanophenoxy)docosyl) hydrogen phosphate] | 49 nM | 8.33 µM | 56 nM | 34 nM | > 46.2 µM | 33 nM
CCCCCCCCCCCCCCCCCCCC[C@H](COP(=O)(O)OC[C@@]1(C#N)O[C@@H](c2ccc3c(N)ncnn23)[C@H](O)[C@@H]1O)OCc1cc(F)cc(C#N)c1 [Compound 34, ((2R,3S,4R)-5-(4-aminopyrrolo[2,1-f][1,2,4]triazin-7-yl)-2-cyano-3,4-dihydroxytetrahydrofuran-2-yl)methyl ((R)-2-((3-cyano-5-fluorobenzyl)oxy)docosyl) hydrogen phosphate] | 276 nM | 7.25 µM | 272 nM | 316 nM | > 43.2 µM | 281 nM
CCCCCCCCCCCCCCCCCCOC[C@H](COP(=O)(O)OC[C@@]1(C#N)O[C@@H](c2ccc3c(N)ncnn23)[C@H](O)[C@@H]1O)Oc1ccc(C#N)c(OC(C)C)c1 [Compound 23, ((2R,3S,4R,5S)-5-(4-aminopyrrolo[2,1-f][1,2,4]triazin-7-yl)-2-cyano-3,4-dihydroxytetrahydrofuran-2-yl)methyl ((R)-2-(4-cyano-3-isopropoxyphenoxy)-3-(octadecyloxy)propyl) hydrogen phosphate] | 9 nM | 5.4 µM | 4 nM | 7 nM | > 42 µM | 4 nM
CCCCCCCCCCCCCCCCCOC[C@H](COP(=O)(O)OC[C@@]1(C#N)O[C@@H](c2ccc3c(N)ncnn23)[C@H](O)[C@@H]1O)OCc1cc(F)cc(C#N)c1 [Compound 53, ((2R,3S,4R,5S)-5-(4-aminopyrrolo[2,1-f][1,2,4]triazin-7-yl)-2-cyano-3,4-dihydroxytetrahydrofuran-2-yl)methyl ((R)-2-((3-cyano-5-fluorobenzyl)oxy)-3-(heptadecyloxy)propyl) hydrogen phosphate] | 35 nM | 2.82 µM | 22 nM | 35 nM | 32.1 µM | 34 nM
CCCCCCCCCCCCCCCCCCC[C@H](COP(=O)(O)OC[C@@]1(C#N)O[C@@H](c2ccc3c(N)ncnn23)[C@H](O)[C@@H]1O)Oc1cc(OC)c(C#N)c(OC)c1 [Compound 39, ((2R,3S,4R,5S)-5-(4-aminopyrrolo[2,1-f][1,2,4]triazin-7-yl)-2-cyano-3,4-dihydroxytetrahydrofuran-2-yl)methyl ((R)-2-(4-cyano-3,5-dimethoxyphenoxy)henicosyl) hydrogen phosphate] | 34 nM | 6.46 µM | 51 nM | 35 nM | > 41.4 µM | 18 nM
CCCCCCCCCCCCCCCCCCC[C@H](COP(=O)(O)OC[C@@]1(C#N)O[C@@H](c2ccc3c(N)ncnn23)[C@H](O)[C@@H]1O)OCc1ccc(C#N)c(OC(C)C)c1 [Compound 28, ((2R,3S,4R,5S)-5-(4-aminopyrrolo[2,1-f][1,2,4]triazin-7-yl)-2-cyano-3,4-dihydroxytetrahydrofuran-2-yl)methyl ((R)-2-((4-cyano-3-isopropoxybenzyl)oxy)henicosyl) hydrogen phosphate] | 47 nM | 7.56 µM | 46 nM | 51 nM | 30.6 µM | 36 nM

Reference: patent US20250034182A1, “PHOSPHOLIPID COMPOUNDS AND METHODS OF MAKING AND USING THE SAME” (priority 2021, published 2025)
